The structures appear in SMILES notation. In brackets after ≈: the same amount, converted by molar mass.

The test system of the assay is human platelet aggregation (ADP-induced). Type of assay: cell-based. The following applies: human platelet rich plasma; ADP final concentration 0.5 mcg/mL; read-out: Inhibition of Human Platelet Aggregation IC50 Vs ADP.

Procedure: The aggregometer method of Born, C. […] Clin. Med. 1964, 64, 548-599 was used to assess the in vitro activity of the various compounds as to the inhibition of adenosine diphosphate (ADP) and collagen-induced platelet aggregation. The human volunteer donor's arm is cleansed with 70% ethyl alcohol. A sterile 20 ml syringe and needle are used to withdraw 20 ml of blood. The blood is immediately added to a test tube containing 3.8% sodium citrate to prevent clotting (1 part citrate to 9 parts blood).
Platelet rich plasma (PRP) was separated by centrifugation for 10 minutes at 1000 rpm (140 xg) from citrated (3.8%) human blood. All glassware used for preparation of PRP is silicon treated. ADP in final concentration of 0.5 mcg/mL or 0.05 mL of a collagen suspension prepared according to the method described by Evans, G., et al., J. Exp. Med., 1968, 128, 877-894 was used to induce aggregation. The various compounds tested were dissolved in dimethylsulfoxide (DMSO) so that 5 mcl added to the platelet rich plasma would yield the desired test concentration. Vehicle control trials were done and compared with aggregation induced in platelet rich plasma containing various concentrations of the test compounds. Dose response curves were obtained and Inhibitor Concentration (IC50) values calculated.

For the compound `O=C(O)COc1cccc(CCc2nc(-c3ccccc3)c(-c3ccccc3)s2)c1` [Example 2, [3-[2-(4,5-Diphenyl-2-thiazolyl)ethyl]phenoxy]acetic Acid], the IC50 was 0.36 µg/mL (≈ 0.866 µM).

`COC(=O)COc1cccc(CCc2nc(-c3ccccc3)c(-c3ccccc3)s2)c1` [Example 1, Methyl (3-[2-(4,5-diphenyl-2-thiazolyl)ethyl]phenoxy]acetate]: the IC50 was determined as 0.41 µg/mL (≈ 0.955 µM).

The IC50 is the concentration needed to halve the response being measured.
